For one assay, the target named is T1, PD-L1 (Mus musculus, UniProt Q9EP73).
T1 construct: Fc (Fc chimera); purchased R&D Systems 1019-B7-100
The assay is described as follows: Rescue of mouse splenocyte proliferation in the presence of recombinant PD-L1 (CFSE proliferation assay). Format: cell-based. The following applies: 100 nM compound; anti-CD3/CD28 stimulated mouse splenocytes + PD-L1; 72 h; read-out: PDL1 (rescue of proliferation @ 100 nM). The method, then: Example 1: Rescue of Mouse Splenocyte Proliferation in the Presence of Recombinant PD-L1/PD-L2
Recombinant mouse PD-L1 (rm-PDL-1, cat no: 1019-B7-100; R&D Systems) were used as the source of PD-L1.
Mouse splenocytes harvested from 6-8 weeks old C57 BL6 mice; RPMI 1640 (GIBCO, Cat #11875); DMEM with high glucose (GIBCO, Cat #D6429); Fetal Bovine Serum [Hyclone, Cat #SH30071.03]; Penicillin (10000 unit/mL)-Streptomycin (10,000 μg/mL) Liquid (GIBCO, Cat #15140-122); MEM Sodium Pyruvate solution 100 mM (100×)), Liquid (GIBCO, Cat #11360); Nonessential amino acid (GIBCO, Cat #11140); L-Glutamine (GIBCO, Cat #25030); Anti-CD3 antibody (eBiosciences—16-0032); Anti-CD28 antibody (eBiosciences—16-0281); ACK lysis buffer (1 mL) (GIBCO, Cat #-A10492); Histopaque (density—1.083 gm/mL) (SIGMA 10831); Trypan blue solution (SIGMA-T8154); 2 mL Norm Ject Luer Lock syringe-(Sigma 2014-12); 40 μm nylon cell strainer (BD FALCON 35230); Hemacytometer (Bright line-SIGMA Z359629); FACS Buffer (PBS/0.1% BSA): Phosphate Buffered Saline (PBS) pH 7.2 (HiMedia TS1006) with 0.1% Bovine Serum Albumin (BSA) (SIGMA A7050) and sodium azide (SIGMA 08591); 5 mM stock solution of CFSE: CFSE stock solution was prepared by diluting lyophilized CFSE with 180 μL of Dimethyl sulfoxide (DMSO C2H6SO, SIGMA-D-5879) and aliquoted in to tubes for further use. Working concentrations were titrated from 10 μM to 1 μM. (eBioscience-650850-85); 0.05% Trypsin and 0.02% EDTA (SIGMA 59417C); 96-well format ELISA plates (Corning CLS3390); BD FACS caliber (E6016); Recombinant mouse B7-H1/PDL1 Fc Chimera, (rm-PD-L1 cat no: 1019-B7-100).
Splenocytes harvested in a 50 mL falcon tube by mashing mouse spleen in a 40 μm cell strainer were further treated with 1 mL ACK lysis buffer for 5 min at room temperature. After washing with 9 mL of RPMI complete media, cells were re-suspended in 3 mL of 1×PBS in a 15 mL tube. 3 mL of Histopaque was added carefully to the bottom of the tube without disturbing overlaying splenocyte suspension. After centrifuging at 800×g for 20 min at room temperature, the opaque layer of splenocytes was collected carefully without disturbing/mixing the layers. Splenocytes were washed twice with cold 1×PBS followed by total cell counting using Trypan Blue exclusion method and used further for cell based assays.
Splenocytes were cultured in RPMI complete media (RPMI+10% fetal bovine serum+1 mM sodium pyruvate+10,000 units/mL penicillin and 10,000 μg/mL streptomycin) and maintained in a CO2 incubator with 5% CO2 at 37° C.
CFSE Proliferation Assay: CFSE is a dye that passively diffuses into cells and hinds to intracellular proteins. 1×10^6 cells/mL of harvested splenocytes were treated with 5 μM of CFSE in pre-warmed 1×PBS/0.1% BSA solution for 10 min at 37° C. Excess CFSE was quenched using 5 volumes of ice-cold culture media to the cells and incubated on ice for 5 min. CFSE labeled splenocytes were further given three washes with ice cold complete RPMI media. CFSE labeled 1×10^5 splenocytes added to wells containing either MDA-MB231 cells (1×10^5 cells cultured in high glucose DMEM medium) or recombinant human PDL-1 (100 ng/mL) and test compounds. Splenocytes were stimulated with anti-mouse CD3 and anti-mouse CD28 antibody (1 μg/mL each), and the culture was further incubated for 72 h at 37° C. with 5% CO2. Cells were harvested and washed thrice with ice cold FACS buffer and % proliferation was analysed by flow cytometry with 488 nm excitation and 521 nm emission filters. Data Compilation, Processing and Inference: […]

A further assay relates to recombinant human TIM-3. Description: Human PBMC IFN-γ release assay in the presence of recombinant TIM-3. The following applies: 100 nM compound, plate-coated TIM-3 + anti-CD3, anti-CD28, 72 h. In kind it is cell-based. The method, then: Vehicle: Milli Q water; RPMI 1640 (GIBCO, Cat #11875); Fetal Bovine Serum [Hyclone, Cat #SH30071.03]; Penicillin (10000 unit/ml)-Streptomycin (10,000 μg/ml) liquid (GIBCO, Cat #15140-122); MEM Sodium Pyruvate solution 100 mM (100×). Liquid (GIBCO, Cat #11360); Nonessential amino acid (GIBCO, Cat #11140); L-Glutamine (GIBCO, Cat #25030); Recombinant human TIM-3 (rhGi24 TIM-3/B7-H5 Fc chimera (R&D systems, cat no: 7126-B7); Anti-h/m Gi24/TIM-3/B7-H5 purified mouse monoclonal IgG2B (R&D systems, cat no: MAB7126); Mouse IgG2B isotype control (R&D Systems cat no: MAB 004); Anti human-CD3 antibody (eBiosciences—16-0039); Anti human-CD28 antibody (eBiosciences—16-0289); Histopaque (density-1.077 gm/ml) (SIGMA 1077); Trypan Blue solution (SIGMA-T8154); Hemacytometer (Bright line-SIGMA Z359629); FACS Buffer containing Phosphate Buffered Saline (PBS) pH 7.2; (HiMedia TS1006) with 0.1% Bovine Serum Albumin (BSA) (SIGMA A7050) and sodium azide (SIGMA 08591); 96-well format ELISA plates (Corning 3599); 96-well format ELISA plates (Corning 3361); BD FACS caliber (E6016); Centrifuge (Eppendorf 5810 R); Human IFN-'γ Duo set ELISA kit (R&D Systems; cat no: DY-285).
Human PBMC IFN-γ Release Assay
96-well cell culture plates were pre-coated with recombinant human TIM-3 (2.5 μg/ml) and anti-human CD3 (2.5 μg/ml), and stored at 4° C. overnight. Anti-human TIM-3 and isotype control antibodies were either coated along with the TIM-3 or incubated for 30 min next day before addition of cells. On the next day, plates were washed with 1× PBS and then incubated with test compounds for 30 min. Isolated PBMC (0.1×10^6 cells/well) and anti-human CD28 antibodies (1 μg/ml) were added to the wells. The culture was further incubated for 72 h at 37° C. with 5% CO2. After 72 h of incubation the cell culture supernatants were collected after brief centrifugation at 200 g×5 min at 4° C. and processed for human IFN-γ measurement by ELISA following manufacturer's protocol (R&D Systems; DY-285).
In brief, 96-well ELISA plates were coated with 100 μl/well of capture antibody in coating buffer and incubated overnight at 4° C. Plates were washed five times with wash buffer and further blocked with 200 μl of 1× assay diluents for 1 hr at RT. Following wash step, 100 μl of cell culture supernatants were added to wells and further incubated for 2 hr at RT. Appropriate standards were also included. After wash step, plate was incubated for one hour with 100 μl/well of detection antibody. The wash step was repeated and the plate was incubated for 30 min with 100 μl/well of Avidin-HRP. The plate was washed four times with wash buffer and subsequently incubated for 15 min with 100 μl/well of substrate solution. 50 μl of stop solution was added to each well and the plate was read at 450 nm using Gen5 ver 2.05. Delta OD values were used for calculating the concentrations. The absorbance values were plotted against the standards and the concentration of IFN-γ was determined using GraphPad Prism software. Each experimental condition was carried out in triplicates.
The percent rescue of IFN-γ release of the selected compounds of present invention are set forth below wherein “A” refers to compounds having more than 70% rescue of IFN-γ release, “B” refers to compounds having rescue of IFN-γ release ranges from 50% to 69.9% and “C” refers to compounds having less than 50% rescue of IFN-γ release.

Results on 19 molecules are retold here after patent US11497734B2, “Dual inhibitors of TIM-3 and PD-1 pathways” (Aurigene Discovery Technologies Limited, priority 2017, dated 2022).

Structures are written as SMILES.

T1 sequence (Q9EP73 19-238 limits assumed): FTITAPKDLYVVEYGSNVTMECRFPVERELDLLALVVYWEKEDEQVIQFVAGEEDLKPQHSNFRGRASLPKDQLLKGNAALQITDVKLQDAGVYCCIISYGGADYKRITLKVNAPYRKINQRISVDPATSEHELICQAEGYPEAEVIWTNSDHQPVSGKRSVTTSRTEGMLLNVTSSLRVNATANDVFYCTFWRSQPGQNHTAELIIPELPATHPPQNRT

As to `CC(O)[C@H](NC(=O)N[C@@H](CC(N)=O)c1nc([C@@H](N)CCC(=O)O)no1)C(=O)O` (some centres unmarked) [Compound 1], the activity at 0.1 µM at PD-L1 was 68%. For the same molecule, the “TIM-3 (rescue of IFN γ release @ 100 nM)” value in the assay on recombinant human TIM-3 is “B (rescue of IFN-γ release ranges from 50% to 69.9%)”.
Taken in the same sequence, the figures for `CCC(C)[C@H](NC(=O)N[C@@H](CC(N)=O)c1nc([C@@H](N)CO)no1)C(=O)O` (some centres unmarked) [Compound 2] were 73% and “A (more than 70% rescue of IFN-γ release)”.
The like results for `CC(O)[C@H](NC(=O)N[C@@H](CC(N)=O)c1nc([C@@H](N)Cc2ccccc2)no1)C(=O)O` (some centres unmarked) [Compound 3] were, in that order, 62% and “A (more than 70% rescue of IFN-γ release)”.
The like results for `CC(O)[C@H](NC(=O)N[C@@H](CC(=O)O)c1nc([C@@H](N)CO)no1)C(=O)O` (some centres unmarked) [Compound 4] were, in that order, 52% and “C (less than 50% rescue of IFN-γ release)”.
With `CC(O)[C@H](NC(=O)N[C@@H](CCC(=O)O)c1nc([C@@H](N)CO)no1)C(=O)O` (some centres unmarked) [Compound 5], at PD-L1, the activity at 0.1 µM turned out to be 88%. In addition, the “TIM-3 (rescue of IFN γ release @ 100 nM)” value with recombinant human TIM-3 is listed as “A (more than 70% rescue of IFN-γ release)”.
The like results for `CC(O)[C@H](NC(=O)N[C@@H](CCC(=O)O)c1nc([C@@H](N)CCCCN)no1)C(=O)O` (some centres unmarked) [Compound 6] were, in that order, 52% and “A (more than 70% rescue of IFN-γ release)”.
Take `CC(O)[C@H](NC(=O)N[C@H](CC(N)=O)c1nc([C@@H](N)CO)no1)C(=O)O` (some centres unmarked) [Compound 7]: at PD-L1, the activity at 0.1 µM was 74%. Besides, in the assay with recombinant human TIM-3, the “TIM-3 (rescue of IFN γ release @ 100 nM)” value is recorded as “A (more than 70% rescue of IFN-γ release)”.
The like results for `CC(O)[C@@H](N)c1noc([C@@H](CC(N)=O)NC(=O)N[C@H](CO)C(=O)O)n1` (some centres unmarked) [Compound 8] were, in that order, 68% and “B (rescue of IFN-γ release ranges from 50% to 69.9%)”.
Taken in the same sequence, the figures for `CC(C)[C@H](NC(=O)N[C@@H](CC(N)=O)c1nc([C@@H](N)CCCCN)no1)C(=O)O` [Compound 9] were 138% and “C (less than 50% rescue of IFN-γ release)”.
Regarding `CSCC[C@H](N)c1noc([C@H](CC(N)=O)NC(=O)N[C@@H](CC(=O)O)C(=O)O)n1` [Compound 10], on PD-L1, the activity at 0.1 µM is 53%. In addition, in the assay with recombinant human TIM-3, the “TIM-3 (rescue of IFN γ release @ 100 nM)” value was “C (less than 50% rescue of IFN-γ release)”.
The like results for `NCCCC[C@H](N)c1noc([C@H](CCC(=O)O)NC(=O)N[C@@H](CO)C(=O)O)n1` [Compound 11] were, in that order, 60% and “C (less than 50% rescue of IFN-γ release)”.
The like results for `NCCCC[C@H](N)c1noc([C@H](CC(N)=O)NC(=O)N[C@@H](CO)C(=O)O)n1` [Compound 12] were, in that order, 41% and “A (more than 70% rescue of IFN-γ release)”.
The like results for `CC(O)[C@H](NC(=O)N[C@@H](CCCCN)c1nc([C@@H](N)CO)no1)C(=O)O` (some centres unmarked) [Compound 13] were, in that order, 66% and “C (less than 50% rescue of IFN-γ release)”.
Consider `COC(C)[C@H](NC(=O)N[C@@H](CC(N)=O)c1nc([C@@H](N)CO)no1)C(=O)O` (some centres unmarked) [Compound 14], for which the activity at 0.1 µM on PD-L1 was found to be 84%. The “TIM-3 (rescue of IFN γ release @ 100 nM)” value in the assay on recombinant human TIM-3 is “C (less than 50% rescue of IFN-γ release)”.
The like results for `CCC(C)[C@H](NC(=O)N[C@H](C(=O)O)C(C)O)c1nc([C@@H](N)CO)no1` (some centres unmarked) [Compound 15] were, in that order, 50% and “C (less than 50% rescue of IFN-γ release)”.
The like results for `CC(O)[C@H](NC(=O)N[C@@H](CC(N)=O)c1nc(C2COCCN2)no1)C(=O)O` (some centres unmarked) [Compound 16] were, in that order, 92% and “B (rescue of IFN-γ release ranges from 50% to 69.9%)”.
The like results for `CC(O)[C@H](NC(=O)N[C@@H](CCC(=O)O)c1nc(C2COCCN2)no1)C(=O)O` (some centres unmarked) [Compound 17] were, in that order, 57% and “C (less than 50% rescue of IFN-γ release)”.
As for `N[C@@H](Cc1ccc(O)cc1)c1noc([C@@H]2CC(O)CN2C(=O)N[C@@H](Cc2ccc(O)cc2)C(=O)O)n1` (some centres unmarked) [Compound 18], the activity at 0.1 µM at PD-L1 amounted to 57%. The “TIM-3 (rescue of IFN γ release @ 100 nM)” value with recombinant human TIM-3 is reported as “C (less than 50% rescue of IFN-γ release)”.
The like results for `N[C@@H](Cc1ccc(O)cc1)c1noc([C@@H]2CCCCN2C(=O)N[C@@H](Cc2ccc(O)cc2)C(=O)O)n1` [Compound 19] were, in that order, 54% and “C (less than 50% rescue of IFN-γ release)”.
